{"source": "patent US7632972B2", "about": "“Compounds and methods for treatment of cancer and modulation of programmed cell death for melanoma and other cancer cells” (The Board of Trustees of the University of Illionis, priority 2003, dated 2009)", "key": {"U-937 cells [1]": {"tested_on": "U-937 cells", "test": "High-throughput cell death assay on library members (MTS/PMS)", "format": "cell-based, human", "conditions": "library members at 100 μM, 24 hours", "experimental": "A three-tiered system was devised to identify compounds that selectively induce apoptosis in cancer cells. First, all compounds were screened at 100 μM in a high-throughput manner for their ability to induce death in two cancer cell lines, HL-60 (leukemia) and U-937 (lymphoma).\nTest compounds were transferred into the wells using a 96-pin transfer apparatus (V & P Scientific, San Diego Calif.) that transfers 0.2 μL of compound. The compounds were made up as 50 mM stock solutions in 100% EtOH, so one transfer gave a final concentration of 100 μM. Controls were performed in which only EtOH (containing no compound) was pin-transferred into wells containing cells. The cells were incubated with the compounds for 24 hours, and then cell death was quantitated."}, "B16-F10": {"tested_on": "B16-F10", "test": "Death induction in melanoma cell line", "format": "cell-based, mouse", "experimental": "(§1) Given the interesting and somewhat unusual trait of G1 arrest, compounds x and y were tested for their ability to induce death in two melanoma cell lines: UACC-62 (human), and B16-F10 (mouse). […] Compounds x and y were also submitted for testing in the NCl 60-cell line assay. […] The triphenylamides (TPAs) induce apoptosis in these melanoma cell lines."}, "UACC-62": {"tested_on": "UACC-62", "test": "Death induction in melanoma cell line", "format": "cell-based, human", "experimental": "as §1"}, "U-937 cell line": {"tested_on": "U-937 cell line", "test": "Death induction by amide library, MTS dye reduction", "format": "cell-based, human", "conditions": "hit compounds of first generation library; read-out: IC50 Value-U-937 cells", "experimental": "Compounds were tested in a U937 cell assay as previously described by Hergenrother et al. (see Hergenrother 2003 and U.S. 60/516,566).\nThe ability of the 100 amides thus produced to induce death in cancer cells was assessed by an assay based on the reduction of the MTS (3-(4,5-dimethylthiazol-2-yl)-5-(3-carboxymethoxyphenyl)-2-(4-sulfophenyl)-2H-tetrazolium, inner salt) dye. This tetrazolium dye is rapidly converted to the formazan product by living cells, and therefore provides a sensitive readout of cell life or death that can be monitored at 490 nm."}, "human bone marrow cells": {"tested_on": "human bone marrow cells", "test": "Toxicity to bone marrow cells of a healthy donor, MTS bioreduction after 72 hours", "format": "cell-based", "conditions": "Bone marrow cell, Table 13, bone marrow cells of healthy donor", "text": "Specificity for cancer cells. The vast majority of anti-cancer drugs are toxic to all rapidly dividing cell types, often leading to deleterious side effects and a reduced therapeutic window. For instance, hematopoietic bone marrow is responsible for the production of red and white blood cells, and the anemia observed upon treatment with certain chemotherapy agents is in a large part due to the toxicity of the anti-cancer drugs on cells in the human bone marrow. Thus, to determine the relative effect of the triphenylamides on melanoma versus normal cells, cells derived from the human bone marrow of a healthy donor were used; measurement of the effect on healthy bone marrow cells can assist in assessing the toxicity of putative anti-cancer agents. (17-20) These cells were treated with increasing concentrations of the compounds shown in Table 13, and cell viability was evaluated after 72 hours using the MTS bioreduction assay. The data in Table 13 indicate that several of the triphenyl amides have selective toxicity to melanoma cells versus the human bone marrow cells."}, "U-937 cells [2]": {"tested_on": "U-937 cells", "test": "cells", "format": "cell-based, human", "conditions": "Homo sapiens; Table 13, U-937"}, "HL-60 cells": {"tested_on": "HL-60 cells", "test": "Determination of IC50 values, cell death by MTS/PMS after 72 h", "conditions": "Homo sapiens, HL-60, read-out: HL-60", "method": "General Cell Culture Conditions: U-937 and HL-60 cell lines were grown in RPMI 1640 supplemented with 10% FBS and incubated at 37° C. in a 5% CO2, 95% air atmosphere and were split every two to three days as necessary.\nCells were then resuspended in RPMI 1640+10% FBS, counted using a hemocytometer and diluted so that 10,000 cells were seeded in to each well of a Corning 96-well flat bottom microtiter plate (Fisher, Chicago Ill.). Media was then added to bring the total volume of each well to 100 μL. Each compound was weighed and then diluted with EtOH to make a 100 mM stock solution. The compounds were added at 9 or more different concentration in 1 μL of EtOH. After a 72 h incubation (37° C. in a 5% CO2, 95% air atmosphere) cell death was quantitated by addition of 20 μL of the MTS/PMS CellTiter 96 Cell Proliferation Assay reagent (Promega, Madison Wis.) to each well. The plates were incubated at 37° C. for approximately 1 hour until the colored product formed and the absorbance was then measured at 490 nm in a Spectra Max Plus 384 plate reader (Molecular Devices, Sunnyvale Calif.). The IC50 was taken as the concentration that caused 50% cell death."}, "[3]": {"conditions": "Mus musculus, B16-F10, Table 13, B16F10 melanoma, read-out: B16F10"}, "[4]": {"conditions": "Homo sapiens, Table 13, UACC-62 melanoma, read-out: UACC-62"}, "[5]": {"conditions": "B16-F10, mouse melanoma cell line, read-out: IC50, BF16-F10"}, "[6]": {"conditions": "UACC-62, human melanoma cell line, read-out: IC50, UACC-62"}}, "note": "pIC50: −log10 of the molar value. Where two headings read alike, the source gives them in different places.", "data": [{"smiles": "COc1ccc(CCNC(=O)/C=C/c2ccccc2)cc1", "note": "[Compound 18-A]", "values": [{"measurement": "Induction of death in U-937 cells (percentages of cell death)", "setting": "U-937 cells [1]", "value": 56, "unit": "%"}]}, {"smiles": "COc1ccc(CCNC(=O)/C=C/c2ccc(O)cc2)cc1", "note": "[Compound 18-B]", "values": [{"measurement": "Induction of death in U-937 cells (percentages of cell death)", "setting": "U-937 cells [1]", "value": 17, "unit": "%"}]}, {"smiles": "COc1ccc(CCNC(=O)/C=C/c2ccc(O)c(O)c2)cc1", "note": "[Compound 18-C]", "values": [{"measurement": "Induction of death in U-937 cells (percentages of cell death)", "setting": "U-937 cells [1]", "value": 26, "unit": "%"}]}, {"smiles": "COc1ccc(CCNC(=O)/C=C/c2ccc(O)c(OC)c2)cc1", "note": "[Compound 18-D]", "values": [{"measurement": "Induction of death in U-937 cells (percentages of cell death)", "setting": "U-937 cells [1]", "value": 66, "unit": "%"}]}, {"smiles": "COc1ccc(CCNC(=O)/C=C/c2ccc(OC)c(O)c2)cc1", "note": "[Compound 18-E]", "values": [{"measurement": "Induction of death in U-937 cells (percentages of cell death)", "setting": "U-937 cells [1]", "value": 73, "unit": "%"}]}, {"smiles": "COc1ccc(CCNC(=O)/C=C/c2cc(OC)c(OC)c(OC)c2)cc1", "note": "[Compound 18-F]", "values": [{"measurement": "Induction of death in U-937 cells (percentages of cell death)", "setting": "U-937 cells [1]", "value": 40, "unit": "%"}]}, {"smiles": "COc1ccc(CCNC(=O)/C=C/c2cc(OC)c(O)c(OC)c2)cc1", "note": "[Compound 18-G]", "values": [{"measurement": "Induction of death in U-937 cells (percentages of cell death)", "setting": "U-937 cells [1]", "value": 35, "unit": "%"}]}, {"smiles": "COc1ccc(CCNC(=O)/C=C/c2cccc(OC)c2)cc1", "note": "[Compound 18-H]", "values": [{"measurement": "Induction of death in U-937 cells (percentages of cell death)", "setting": "U-937 cells [1]", "value": 56, "unit": "%"}]}, {"smiles": "O=P1(N(CCCl)CCCl)NCCCO1", "note": "(stereo not shown) [Cyclophosphamide]", "values": [{"measurement": "pIC50", "setting": "B16-F10; Mus musculus, B16-F10, read-out: B16F10", "value": "< 4.00"}, {"measurement": "pIC50", "setting": "UACC-62; Homo sapiens, UACC-62, read-out: UACC-62", "value": "< 4.00"}]}, {"smiles": "COc1cc([C@@H]2c3cc4c(cc3[C@@H](O[C@@H]3O[C@@H]5CO[C@@H](C)O[C@H]5[C@H](O)[C@H]3O)[C@H]3COC(=O)[C@H]23)OCO4)cc(OC)c1O", "note": "[Etoposide]", "values": [{"measurement": "pIC50", "setting": "B16-F10; [3]", "value": "< 4.00"}, {"measurement": "pIC50", "setting": "UACC-62; [4]", "value": "< 4.00"}]}, {"smiles": "C[C@]12C=CC(=O)C=C1CC[C@@H]1[C@@H]2C(=O)C[C@@]2(C)[C@H]1CC[C@]2(O)C(=O)CO", "note": "[Prednisone]", "values": [{"measurement": "pIC50", "setting": "B16-F10; [3]", "value": "< 4.00"}, {"measurement": "pIC50", "setting": "UACC-62; [4]", "value": "< 4.00"}]}, {"smiles": "O=C(NCCc1ccccc1)C(c1ccccc1)(c1ccccc1)c1ccccc1", "note": "[drawing 68, R = H]", "values": [{"measurement": "pIC50", "setting": "U-937 cell line", "value": 5.10}]}, {"smiles": "COc1ccc(CCNC(=O)CC(c2ccccc2)(c2ccccc2)c2ccccc2)cc1OC", "note": "[drawing 69, R1 = H, R2 = OCH3, R3 = OCH3]", "values": [{"measurement": "pIC50", "setting": "U-937 cell line", "value": 4.74}]}, {"smiles": "COc1ccccc1CCNC(=O)CC(c1ccccc1)(c1ccccc1)c1ccccc1", "note": "[drawing 69, R1 = OCH3, R2 = H, R3 = H]", "values": [{"measurement": "pIC50", "setting": "U-937 cell line", "value": 4.80}]}, {"smiles": "O=C(NCCc1ccccc1)C(c1ccccc1)(c1ccccc1)c1ccccc1", "note": "[drawing 73]", "values": [{"measurement": "pIC50", "setting": "B16-F10; [5]", "value": 6.38}, {"measurement": "pIC50", "setting": "UACC-62; [6]", "value": 6.31}]}, {"smiles": "COc1cccc(CCNC(=O)CC(c2ccccc2)(c2ccccc2)c2ccccc2)c1", "note": "[drawing 74]", "values": [{"measurement": "pIC50", "setting": "B16-F10; [5]", "value": 6.07}, {"measurement": "pIC50", "setting": "UACC-62; [6]", "value": 5.87}]}, {"smiles": "O=C(NC12CC3CC(CC(C3)C1)C2)C(c1ccccc1)(c1ccccc1)c1ccccc1", "note": "[drawing 75]", "values": [{"measurement": "pIC50", "setting": "B16-F10; [5]", "value": 4.81}, {"measurement": "pIC50", "setting": "UACC-62; [6]", "value": 5.62}]}, {"smiles": "O=C(NC12CC3CC(CC(C3)C1)C2)C(c1ccccc1)(c1ccccc1)c1ccccc1", "note": "[drawing 78]", "values": [{"measurement": "pIC50", "setting": "human bone marrow cells", "value": 6.23}, {"measurement": "pIC50", "setting": "U-937 cells [2]", "value": 6.32}, {"measurement": "pIC50", "setting": "B16-F10; [3]", "value": 4.81}, {"measurement": "pIC50", "setting": "UACC-62; [4]", "value": 5.62}, {"measurement": "pIC50", "setting": "HL-60 cells", "value": 6.07}]}]}
